≈ marks a conversion by molar mass, not a printed value. Read-outs that look alike come from different tables or passages of the source.
Experiments:
[1] = system: S. choleraesuis ATCC 10708; assay: Determination of the bactericidal activity (logarithmic reduction in organism count); type: cell-based, Salmonella choleraesuis; conditions: contact for 30 minutes at a substance concentration of 120 μg/mL
Procedure: (§1) Determination of the Bactericidal Activity of Selected Compounds
(§2) Casein-soybean flour-peptone broth for preparation of pre-cultures of test bacteria
(§3) Examples of Test Organisms:
(§4) • Staphylococcus aureus ATCC 6538 • Escherichia coli ATCC 10536 • Salmonella choleraesuis ATCC 10708 Procedure:
(§5) The test substances are dissolved in dimethyl sulfoxide (DMSO) and tested in a concentration of 120 μg/ml.
(§6) Bacteria are incubated overnight in CASO broth and adjusted to an organism count of 1–5×10^5 CFU/ml using 0.85% sodium chloride solution.
(§7) The test substances are pre-pipetted into microtitre plates in amounts of 8 μl per well.
(§8) The adjusted test organism suspensions are added in amounts of 192 μl per well to the test substances and mixed. After defined contact times, the test batches are mixed, an aliquot is withdrawn and diluted in several steps in a dilution series of 1:10 in a suitable inactivation medium.
The test plates are incubated for 24 hours at 37° C. […]
(§9) One microtitre plate is used for each test organism.
(§10) All the substances are tested in duplicate.

E. coli NCTC 8196 = assay: as above; type: cell-based, Escherichia coli; conditions: contact for 30 minutes at a substance concentration of 120 μg/mL
S. aureus ATCC 6538 = assay: as above; type: cell-based, Staphylococcus aureus; conditions: contact for 30 minutes at a substance concentration of 120 μg/mL
Procedure: as §1, §2, §3, §4, §5, §6, §7, §8
The test plates are incubated for 24 hours at 37° C.
(§11) After incubation, the growth is determined on the basis of the turbidity of the test batches (optical density) at 620 nm in a microplate reader.
as §9, §10

[2] = system: Staphylococcus hominis DMS 20328; assay: Minimum inhibitory concentration (MIC) in microtitre plates; type: cell-based; conditions: Table 7, 48 hours at 37° C., MIC = ≦20% growth compared to control; for MIC: Staphylococcus hominis, DMS20328, read-out: Minimum inhibitory concentration (MIC) S. hominis
Procedure: (§12) Determination of the Minimum Inhibitory Concentration (MIC Value) in Microtitre Plates
(§13) Casein-soybean flour-peptone broth for preparation of pre-cultures of test bacteria and yeast.
(§14) Mycological slant agar for the pre-culture of moulds
as §3
(§15) The test substances are pre-dissolved in dimethyl sulfoxide (DMSO) and tested in a dilution series of 1:2.
(§16) Bacteria and yeast are cultured overnight in CASO broth, the mould is cultured overnight on mycological slant agar, and washed off using 10 ml of 0.85% sodium chloride solution (+0.1% Triton X-100).
(§17) All the test organisms are adjusted to an organism count of 1–5×10^6 CFU/ml using 0.85% sodium chloride solution.
as §7
(§18) Pre-diluted organism suspensions are diluted 1:100 in CASO broth (bacteria and yeast) or Sabouraud 2% glucose broth (mould) and are added in amounts of 192 μl per well to the test substances.
(§19) The test batches are incubated for 48 hours at 37° C. (bacteria and yeast) or for 5 days at 28° C. (mould).
as §11
(§20) The minimum inhibitory concentration (MIC value) is the concentration of substance at which there is found (compared to the growth of the control) an appreciable inhibition of growth (≦20% growth) of the test organisms.
(§21) One microtitre plate is used for each test organism and substance concentration. All the substances are tested in duplicate.

[3] = system: Escherichia coli NCTC 8196; assay: as above; type: cell-based; conditions: for MIC: Escherichia coli, NCTC8196
Procedure: as §12, §13, §14, §3, §15, §16, §17, §7, §18, §19, §11, §20, §21

[4] = system: Enterococcus hirae ATCC 10541; assay: Minimum inhibitory concentration (MIC), further microorganisms; type: cell-based; conditions: Table 8, * = significant inhibition of growth, but not complete inhibition; for MIC: Enterococcus hirae, ATCC10541
Procedure: as §12, §13, §14, §15, §16, §17, §7, §18, §19, §11, §20, §21

[5] = system: Epidermophyton floccosum DSM 10709; assay: as above; type: cell-based; conditions: Table 8, * = significant inhibition of growth, but not complete inhibition; for MIC: Epidermophyton floccosum, DSM10709
Procedure: as §12, §13, §14, §15, §16, §17, §7, §18, §19, §11, §20, §21

[6] = system: Staphylococcus aureus ATCC 9144; assay: as above; type: cell-based; conditions: Table 8, * = significant inhibition of growth, but not complete inhibition; for MIC: Staphylococcus aureus, ATCC9144
Procedure: as §12, §13, §14, §15, §16, §17, §7, §18, §19, §11, §20, §21

[7] = system: Trichophyton mentagrophytes ATCC 9533; assay: as above; type: cell-based; conditions: Table 8, * = significant inhibition of growth, but not complete inhibition; for MIC: Trichophyton mentagrophytes, ATCC9533
Procedure: as §12, §13, §14, §15, §16, §17, §7, §18, §19, §11, §20, §21

[8] = system: Micrococcus luteus ATCC 9341; assay: as above; type: cell-based; conditions: Table 8, * = significant inhibition of growth, but not complete inhibition; for MIC: Micrococcus luteus, ATCC9341
Procedure: as §12, §13, §14, §15, §16, §17, §7, §18, §19, §11, §20, §21

[9] = system: S. epidermidis ATCC 12228; assay: as above; type: cell-based; conditions: Table 8, * = significant inhibition of growth, but not complete inhibition; for MIC: Staphylococcus epidermidis, ATCC12228
Procedure: as §12, §13, §14, §15, §16, §17, §7, §18, §19, §11, §20, §21

[10] = Table 7, 48 hours at 37° C., MIC = ≦20% growth compared to control
[11] = Table 8, * = significant inhibition of growth, but not complete inhibition
[12] = Table 7, 48 hours at 37° C., MIC = ≦20% growth compared to control, read-out: Minimum inhibitory concentration (MIC) E. coli
[13] = Table 8, * = significant inhibition of growth, but not complete inhibition, read-out: Minimum inhibitory concentration (MIC) E. coli NCTC 8196

| Structure (SMILES) | Minimum inhibitory concentration (MIC) S. hominis [2] | Minimum inhibitory concentration (MIC) E. coli [3, 10] | Minimum inhibitory concentration (MIC) E. coli NCTC 8196 [3, 11] | Minimum inhibitory concentration (MIC) Enterococcus hirae ATCC 10541 [4] | Minimum inhibitory concentration (MIC) Epidermophyton floccosum DSM 10709 [5] | Minimum inhibitory concentration (MIC) Staphylococcus aureus ATCC 9144 [6] | Minimum inhibitory concentration (MIC) Trichophyton mentagrophytes ATCC 9533 [7] | Minimum inhibitory concentration (MIC) Micrococcus luteus ATCC 9341 [8] | Minimum inhibitory concentration (MIC) S. epidermidis ATCC 12228 [9] | also measured |
| --- | --- | --- | --- | --- | --- | --- | --- | --- | --- | --- |
| CC(C)c1cc(NCCCCCCCCCCCCN)nc(-c2ccccn2)n1 [Compound of formula 43] | – | – | – | – | – | – | – | – | – | Logarithmic reduction in organism count, S. choleraesuis ATCC 10708 [1]: <1 log; Logarithmic reduction in organism count, E. coli NCTC 8196 (E. coli NCTC 8196): <1 log; Logarithmic reduction in organism count, S. aureus ATCC 6538 (S. aureus ATCC 6538): 3 log |
| CC(C)c1cc(NCCCCCCCCCCCCN)nc(-c2ccccn2)n1 [compound 43] | 7.5 µg/mL (≈ 18.9 µM) | 60 µg/mL (≈ 151 µM) | >60 µg/mL | 30 µg/mL (≈ 75.5 µM) | >60 µg/mL | 30 µg/mL (≈ 75.5 µM) | >60 µg/mL | 3.75 µg/mL (≈ 9.43 µM) | *15 μg/mL | – |
| CCCCCCCNc1cc(C(F)(F)F)nc(-c2ccccn2)n1 [compound 32] | 3.75 µg/mL (≈ 11.1 µM) | >120 µg/mL | >60 µg/mL | 7.5 µg/mL (≈ 22.2 µM) | *60 μg/mL | 15 µg/mL (≈ 44.3 µM) | >60 µg/mL | >0.5 µg/mL | 7.5 µg/mL (≈ 22.2 µM) | – |
| CCCCCCCCCCNc1cc(C(F)(F)F)nc(-c2ccccn2)n1 [compound 35] | – | – | – | – | – | – | – | – | – | MIC [2]: 3.75 µg/mL (≈ 9.86 µM); MIC [3, 12]: > 120 µg/mL; MIC [3, 13]: > 60 µg/mL; MIC [4]: 7.5 µg/mL (≈ 19.7 µM); MIC [5]: > 60 µg/mL; MIC [6]: 7.5 µg/mL (≈ 19.7 µM); MIC [7]: > 60 µg/mL; MIC [8]: < 0.5 µg/mL; MIC [9]: 7.5 µg/mL (≈ 19.7 µM) |
| CCCCCCCCCNc1cc(C(C)C)nc(-c2ccccn2)n1 [compound 46] | 3.75 µg/mL (≈ 11 µM) | >120 µg/mL | >60 µg/mL | 30 µg/mL (≈ 88.1 µM) | 60 µg/mL (≈ 176 µM) | 30 µg/mL (≈ 88.1 µM) | >60 µg/mL | 3.75 µg/mL (≈ 11 µM) | 30 µg/mL (≈ 88.1 µM) | – |
| CCCCCCCCNc1cc(C(C)(C)C)nc(-c2ccccn2)n1 [Compound of formula 57] | – | – | – | – | – | – | – | – | – | Logarithmic reduction in organism count, S. choleraesuis ATCC 10708 [1]: <1 log; Logarithmic reduction in organism count, E. coli NCTC 8196 (E. coli NCTC 8196): <1 log |
| CCCCCCCCCNc1cc(C(C)(C)C)nc(-c2ccccn2)n1 [compound 58] | 3.75 µg/mL (≈ 10.6 µM) | >120 µg/mL | >60 µg/mL | 7.5 µg/mL (≈ 21.2 µM) | >60 µg/mL | *1.9 μg/mL | >60 µg/mL | <0.5 µg/mL | 1.9 µg/mL (≈ 5.36 µM) | – |
| CCCCCCCNc1cc(C(C)C)nc(-c2ccccn2)n1 [compound 44] | – | – | – | – | – | – | – | – | – | MIC [2]: 3.75 µg/mL (≈ 12 µM); MIC [3, 12]: > 120 µg/mL; MIC [3, 13]: > 30 µg/mL; MIC [4]: 15 µg/mL (≈ 48 µM); MIC [5]: 60 µg/mL (≈ 192 µM); MIC [6]: 15 µg/mL (≈ 48 µM); MIC [7]: > 60 µg/mL; MIC [8]: 1 µg/mL (≈ 3.2 µM); MIC [9]: 15 µg/mL (≈ 48 µM) |
| CCCCCCCCCNc1nc(-c2ccccn2)nc(C)c1CC [compound 10] | 5 µg/mL (≈ 14.7 µM) | >80 µg/mL | >60 µg/mL | 30 µg/mL (≈ 88.1 µM) | 60 µg/mL (≈ 176 µM) | 15 µg/mL (≈ 44.1 µM) | 60 µg/mL (≈ 176 µM) | <0.5 µg/mL | 15 µg/mL (≈ 44.1 µM) | – |
| CCCCCCCCCNc1cc(C(F)(F)F)nc(-c2ccccn2)n1 [compound 34] | 3.75 µg/mL (≈ 10.2 µM) | >120 µg/mL | >60 µg/mL | 60 µg/mL (≈ 164 µM) | >60 µg/mL | >60 µg/mL | >60 µg/mL | >0.5 µg/mL | *60 μg/mL | – |
| CCCCCCCCNc1cc(C(C)C)nc(-c2ccccn2)n1 [compound 45] | 3.75 µg/mL (≈ 11.5 µM) | >120 µg/mL | >30 µg/mL | 3.75 µg/mL (≈ 11.5 µM) | >60 µg/mL | 7.5 µg/mL (≈ 23 µM) | >60 µg/mL | 3.75 µg/mL (≈ 11.5 µM) | 7.5 µg/mL (≈ 23 µM) | – |
| CCCCCCCCCCNc1cc(CCOC)nc(-c2ccccn2)n1 [compound 83] | 7.5 µg/mL (≈ 20.2 µM) | >120 µg/mL | >60 µg/mL | 30 µg/mL (≈ 81 µM) | >60 µg/mL | *15 μg/mL | >60 µg/mL | 3.75 µg/mL (≈ 10.1 µM) | 15 µg/mL (≈ 40.5 µM) | – |
